Source: US11839873B2, “Valveless fluidic switching flowchip and uses thereof” (Protein Fluidics, Inc., priority 2018, dated 2023)
Residues, ends and D or L forms follow the SMILES beside them. *: point of attachment. Cbz = O=C(OCc1ccccc1)*

Assays:
[1] = system: HUVECs stimulated with an inflammatory cytokine mixture of TNF-α, IL-1β, and IFN-γ (IL-8, IL-6, MCP-1 upregulation); test: Multiparametric HUVEC inflammation assay, secreted cytokines quantified by microfluidic flowchip ELISA; assay type: cell-based, human; conditions: for HUVEC inflammation response as shown by upregulation of IL-8, IL-6, and MCP-1: HUVECs stimulated with TNF-α, IL-1β, IFN-γ mixture for 20 hours at 37° C., concentration dependent effect of compound; for IL-8 expression: HUVECs, compounds added 1 hour prior to inflammatory cytokine mixture, 20 hours at 37° C.
Description: We present results from a multiparametric primary human cell-based assay that uses immunoassays for secreted cytokines to evaluate the effect of different mediators on inflammatory response. Expression of the inflammation markers from primary human umbilical vein endothelial cells (HUVEC) stimulated with inflammation cytokines (TNF-α, IFN-γ, and IL-1β) was quantified by microfluidic-based ELISAs.
The Capture and Primary antibodies are specific to each immunoassay and matched antibody pairs for the MCP-1, IL-8, and IL-6 assays were obtained from a commercial source (Biolegend, San Diego, CA). The buffers and Stop Solution are common to all three assays and were made using materials obtained from Sigma-Aldrich. The SA-HRP (Becton Dickenson, San Diego, CA) and Substrate (Abcam, Cambridge, MA) were also common to each assay. The Capture Ab's were used at a concentration of 10 μg/ml and made by diluting stock Ab in a Coating Buffer solution containing phosphate buffered saline (PBS). The Primary Ab's were used at a concentration of 1 μg/ml and made by diluting stock Ab in an Assay Buffer solution containing PBS, bovine serum albumin (BSA), and Tween20. The Blocking Buffer consisted of BSA diluted in PBS. The SA-HRP was also diluted in Assay Buffer and used at a concentration of 200 ng/ml. The Substrate solution was used as provided.

[2] = system: THP-1 cells stimulated with PMA and LPS (IL-8, IL-1β, TNFα secretion); test: THP-1 cell cytokine secretion assay, microfluidic flowchip ELISA; assay type: cell-based, human; conditions: for THP-1 cellular inflammation response as shown by upregulation of IL-8: THP-1 cells stimulated with PMA and LPS for 20 hours at 37° C., concentration dependent effect of compound; for cytokine expression: THP-1 cells treated with compound prior to PMA and LPS activation, cytokine secretion quantified
Protocol: THP-1 cells were stimulated with PMA and LPS for 48 hours. […] To evaluate anti-inflammatory compounds, cells were treated with the kinase inhibitors SB202190 and PDTC, and the antibiotic moxifloxacin prior to activation. Then, inhibition of the inflammation responses by those anti-inflammatory compounds was measured by quantifying cytokine secretion.
A microfluidic flowchip was designed containing multiple reservoirs and nodes that accommodate the reagents required to perform an ELISA assay. The assay channel (from Well 3 to Well 9) has a cross-section of 50 μm by 300 μm and length of 25 mm while the other transfer channels have cross-sections of 50 μm by 50 μm. […] The flowchip was made out of COC using injection molding and the bottom surface was sealed with a COC film. Each reservoir has a capacity of ˜30 μl and was filled with 20 μl of the appropriate assay reagent. Assays were performed using a single protocol for all reagents as shown in FIG. 22 carried out in the following order: Capture Antibody (W3), Blocking Buffer (W2), Sample (W1), Primary Antibody (W4), Avidin-HRP (W5), Wash Buffer (Wash), Substrate (W7), and Stop Solution (W6).
The Capture and Primary antibodies are specific to each immunoassay and matched antibody pairs for the IL-8, IL-β, and TNFα assays were obtained from a commercial source (Biolegend, San Diego, CA). The buffers and Stop Solution are common to all three assays and were made using materials obtained from Sigma-Aldrich. The Avidin-HRP (Biolegend, San Diego, CA) and Substrate (Abcam, Cambridge, MA) were also common to each assay. The Capture Ab's were used at a concentration of 10 μg/ml and made by diluting stock Ab in a Coating Buffer solution containing phosphate buffered saline (PBS). The Primary Ab's were used at a concentration of 1 μg/ml and made by diluting stock Ab in an Assay Buffer solution containing PBS, bovine serum albumin (BSA), and Tween20. The Blocking Buffer consisted of BSA diluted in PBS. The Avidin-HRP was also diluted in Assay Buffer and used at a concentration of 200 ng/ml. The Substrate solution was used as provided.
Each fluid transfer step, from a source well to a destination well, followed a fluid transfer rule that included a HP portion to move the majority of fluid through a given channel followed by a longer LP portion to empty the source well without emptying the channel as described previously. The HP portion typically was between 5 and 20 sec while the LP portion typically was between 30 and 300 sec. Incubation in the assay channel was done using a different fluid transfer rule that included successive short HP transfers followed by a delay between transfers to allow interaction of the reagents with the assay channel walls. […]

Row | SMILES | HUVEC inflammation response as shown by upregulation of IL-8, IL-6, and MCP-1 [1] | IL-8 expression [1] | THP-1 cellular inflammation response as shown by upregulation of IL-8 [2] | cytokine expression [2]
1 | N#CC(C#N)=Cc1ccc([N+](=O)[O-])c(O)c1 [AG-126] | clearly diminished | reduced at similar concentrations | – | –
2 | CC(C)C[C@@H](C=O)NC(=O)[C@H](CC(C)C)NC(=O)[C@H](CC(C)C)NC(=O)OCc1ccccc1 [MG-132] (Cbz-Leu-Leu-Leu-aldehyde) | clearly diminished | not affected within the concentration range studied | – | –
3 | S=C(S)N1CCCC1 [PDTC] | – | – | clearly diminished | Concentration-dependent decreases
4 | Oc1ccc(-c2nc(-c3ccncc3)c(-c3ccc(F)cc3)[nH]2)cc1 [SB202190] | clearly diminished | reduced at similar concentrations | clearly diminished | Concentration-dependent decreases
